Data from patent publication EP2902035B1, “Cell-permeable peptide inhibitors of the JNK signal transduction pathway for use in the treatment of inflammatory eye diseases” (Xigen Inflammation Ltd., priority 2010, dated 2012).

Experiments:
ED1 positive cells = experiment: Quantification of infiltrating ED1 positive cells on histological sections in EIU; assay type: in vivo, Lewis rats; conditions: 24 hours after LPS challenge, mean ± SEM
Method: For immunohistochemistry, eyeballs were collected and fixed for 1h at room temperature in phosphate buffered saline (PBS) containing 4% paraformaldehyde before being rinsed overnight in PBS. The next day, samples were embedded and frozen in optimal cutting-temperature (OCT) compound (Tissue-Tek®, Sakura Finetek, Zoeterwoude, Netherland) and stored at -80°C. Frozen antero-posterior sections of eyes (10 µm thick) were performed at the optic nerve level using a cryostat (Leica CM 3050S, Rueil-Malmaison, France) and mounted on super-frost slides for immunohistochemical analysis.
A second set of experiment was designed to evaluate the anti-inflammatory effect of the JNK-inhibitor (poly-)peptide of SEQ ID NO: 11 at the cellular and tissue level as well as the biodistribution of this molecule 24 hours after administration. Rats were randomized into 11 experimental groups. 6 groups of rats with uveitis: untreated uveitic rats, rats injected intravenously with NaCl or the JNK-inhibitor (poly-)peptide of SEQ ID NO: 11 and rats injected intravitreously with the vehicle, the JNK-inhibitor (poly-)peptide of SEQ ID NO: 11 or dexamethasone. The 5 additional groups without uveitis were: untreated healthy rats, rats treated by NaCl IV or the JNK-inhibitor (poly-)peptide of SEQ ID NO: 11 IV and rats injected IVT with NaCl or the JNK-inhibitor (poly-)peptide of SEQ ID NO: 11. Three eyes from separate rats were collected per group and used for immunohistochemistry.
To characterize the cellular infiltrate, sections were double-stained with ED1 and iNOS. […] After staining nuclei with DAPI (Sigma-Aldrich, Saint-Quentin Fallavier, France), sections were mounted in PBS/Glycerol (1/1) and observed by fluorescence photomicroscopy (FXA, Microphot, Nikon, Melville, USA). […] ED1 positive cells and polymorphonuclear cells, identified by the shape of their nuclei stained with DAPI, were quantified on histological sections. […] Results were expressed as mean ± standard error of the mean (SEM).

[1] = system: Endotoxin-Induced Uveitis (EIU); experiment: Scoring of Endotoxin-Induced Uveitis (EIU) by slit lamp; assay type: in vivo, Lewis rats; conditions: scored at 24 hours on a scale from 0 to 5, mean ± SEM
Method: For intravenous (IV) injection, 100 µL of saline (NaCl 0.9%) or the JNK-inhibitor (poly-)peptide of SEQ ID NO: 11 (20 µg/kg in saline) were injected in a tail vein using a 25G-needle connected on a 1 mL syringe (Becton Dickinson, France). For intravitreous (IVT) injection, 5 µL of saline or the JNK-inhibitor (poly-)peptide of SEQ ID NO: 11 (0.2 µg/injection in saline) were injected in both eyes using a 30G disposable needle (BD-microfine syringe, nm Médical, Asnière, France). The IV dose of 20 µg/kg (i.e. 3.5 µg/rat in rats weighing 175g) was chosen according to studies showing that the JNK-inhibitor (poly-)peptide of SEQ ID NO: 11 is active at very low doses in other models. For intravitreous injections, the inventors used the minimal dose used in direct ear application after acute noise trauma in patients. This corresponds to 5% of the dose injected intravenously. […]
In a first set of experiment, 70 rats were randomized into 14 experimental groups with 5 rats per group. […] Clinical ocular inflammation was recorded only at 24 hours (see Scoring of Endotoxin-Induced Uveitis (EIU) section). […]
Animals were examined by slit lamp at 24 hours, the clinical peak of the disease in our experiments. The intensity of clinical ocular inflammation was scored on a scale from 0 to 5 for each eye as described previously 10: grade (0) indicates no inflammation; grade (1) indicates the presence of a minimal iris and conjunctival vasodilation but without the observation of flare or cells in the anterior chamber (AC); grade (2) indicates the presence of moderate iris and conjunctival vessel dilation but without evident flare or cells in the AC; grade (3) indicates the presence of intense iris vessels dilation, flare and less than 10 cells per slit lamp field in the AC; grade (4) indicates the presence of more severe clinical signs than grade 3, with more than 10 cells in the AC with or without the formation of a hypopion; grade (5) indicates the presence of intense inflammatory reaction, fibrin formation in the AC and total seclusion of the pupil. […]

CC(C)C[C@@H](NC(=O)[C@@H](Cc1ccccc1)NC(=O)[C@H]1CCCN1C(=O)[C@@H](CCC(N)=O)NC(=O)[C@H](NC(=O)[C@H]1CCCN1C(=O)[C@@H](CCCNC(=N)N)NC(=O)[C@@H](CO)NC(=O)[C@@H](CCC(N)=O)NC(=O)[C@H](N)CC(=O)O)C(C)C)C(=O)N[C@H](CC(N)=O)C(=O)N[C@H](CC(C)C)C(=O)N[C@@H](C(=O)N[C@@H](C(=O)N1CCC[C@@H]1C(=O)N[C@H](CCCNC(=N)N)C(=O)N[C@H](CCCCN)C(=O)N1CCC[C@@H]1C(=O)N[C@H](CCCNC(=N)N)C(=O)N1CCC[C@@H]1C(=O)N1CCC[C@@H]1C(=O)N[C@H](CCCNC(=N)N)C(=O)N[C@H](CCCNC(=N)N)C(=O)N[C@H](CCCNC(=N)N)C(=O)N[C@H](CCC(N)=O)C(=O)N[C@H](CCCNC(=N)N)C(=O)N[C@H](CCCNC(=N)N)C(=O)N[C@H](CCCCN)C(=O)N[C@H](CCCCN)C(=O)N[C@H](CCCNC(=N)N)C(=O)NCC(=O)O)[C@H](C)O)[C@H](C)O [SEQ ID NO: 11]
number of ED1 positive cells (ED1 positive cells; IV injection (20 µg/kg)): 137 ± 7 | number of ED1 positive infiltrating cells (ED1 positive cells; IVT injection (SEQ ID NO: 11: 0.2 µg/injection)): 93 ± 8 | EIU clinical scores ([1]; 20 µg/kg intravenous (IV) injection at LPS challenge): 2.0 ± 0.1 A.U. | EIU clinical scores ([1]; intravitreous (IVT) administration at LPS challenge (SEQ ID NO: 11: 0.2 µg/injection)): 2.2 ± 0.2 A.U.
